Like-named read-outs stand apart in the source and are kept apart here.
Key:
[1] = tested on: S. aureus JE2 and transposon mutants; format: cell-based, Staphylococcus aureus
Protocol: (§1) 305 Minimal inhibitory concentration (MIC) assay
(§2) We made serial dilutions of 10×
(§3) We determined the MIC using OD600
(§4) Accordingly, we added 150 mM NaCl,
(§5) 319 established protocol (5).
542 Use of S. aureus transposon mutants
543 We used S. aureus transposon mutants from the Nebraska Transposon Mutant Library
544 (NTML)(21). The library has a collection of 1,952 strains, each containing a single mutation within
545 a nonessential gene of USA300, an epidemic community-associated MRSA (CA-MRSA) isolate
546 (21). We selected a transposon insertion mutant from the NTML library in the fmtc gene, which
547 catalyzes the transfer of a lysyl group from L-lysyl-tRNA to membrane-bound
548 phosphatidylglycerol (PG) to produce lysylphosphatidylglycerol (LPG) (11). LPG imparts a less-
549 negative charge to the overall membrane potential and thus contributes to bacterial virulence by
550 contributing a resistance mechanism against cationic AMPs (11).

[2] = tested on: S. aureus isolates
Protocol: 306 To determine the minimum concentration of peptide that inhibits the growth of bacteria,
307 termed as the minimal inhibitory concentration (MIC), we used the broth microdilution method
308 described by the Clinical and Laboratory Standards Institute (4). We made serial dilutions of 10×
309 concentrated peptides (10 µl) in duplicate in 96-well plates (Cat no. 3595, Corning, NY, USA).
310 We added 90 µl of logarithmic-phase bacteria at 1 × 10^6 CFU/ml (in TSB medium) to the peptides
311 and then incubated the plates at 37°C for 18 hours. We determined the MIC using OD600
312 measurements taken on a Spectra Max i3x spectrophotometer (Molecular Devices, CA, USA).

[3] = tested on: S. aureus MW2 skin infection; assay: Skin-abraded murine infection, prophylactic (acute) model, bacterial load; format: in vivo, mice; conditions: for Reduction of S. aureus MW2 burden vs vehicle, prophylactic model: single treatment 10 minutes after inoculation, n = 12; for Reduction of S. aureus MW2 burden, repeat of prophylactic model: n = 8
Protocol: 599 In vivo murine skin infection and treatment
600 We used a topical skin-abraded murine infection model with minor modifications to test
601 the in vivo efficacy of the CIT-8 peptide (25). We performed all mouse studies following the
602 protocol approved by the Institutional Animal Care and Use Committee. In brief, we anesthetized
603 female C57BL/6 mice (6 weeks) (Jackson Laboratory, Bar Harbor, ME, USA) with ketamine-
604 xylazine (90 mg/kg ketamine and 10 mg/kg xylazine) via intraperitoneal injection. We shaved the
605 dorsal side of the mice in the middle of the back (area=2 cm2). To disrupt skin integrity, we tape-
606 stripped with Tensoplast® seven times in succession, replacing the tape each time, resulting in
607 visibly damaged skin. We infected the damaged skin area with 1 × 10^7 CFU of S. aureus MW2
608 (exponential phase bacteria in PBS) with an inoculum of 50 µl using a pipette tip. Ten minutes
609 (prophylactic model) and 24 h (established model) after bacterial inoculation, we applied 30 mg
610 of 1 and 2% (w/w) CIT-8 ointment in a white petroleum jelly base (Cat no. 19-090-843, Fisher
611 Scientific, MA, USA) to the skin. We also included animal groups treated with only petroleum
612 jelly or with 2% commercial mupirocin ointment as negative and positive controls, respectively.
613 For pain management, we used the analgesic buprenorphine SR (0.05 mg/kg).
614 After 24 h of treatment, we euthanized the animals, separated the skin from the underlying
615 fascia and muscle tissue, and excised about 2 cm2 of skin from the infected area. We ground the
616 skin in 1ml of PBS buffer (Gibco, MD, USA). We serially diluted 100 µl of the solution in PBS
617 and plated it on Remel™ TSA plates (Fisher, MA, USA) to estimate viable colony counts after 18
618 h of incubation at 37 °C. Further, we added 10 µl of EDTA-Free, protease inhibitor cocktail Set III
619 (Millipore Sigma, MA, USA) to 500 µl of the ground skin PBS solution for cytokine estimation.
620 The Cytokine Core, LLC (Indianapolis, IN, USA) performed the cytokine concentration analysis

[4] = tested on: S. aureus MW2 (MRSA) exponential and persister cells; assay: S. aureus persister cell and time-kill assays (MW2); format: cell-based, Staphylococcus aureus; conditions: approximately 1 × 10^8 CFU, 10 × MIC
Protocol: as §1, §2, §3, §4, §5
323 aureus VRS1) in PBS. To assess the killing kinetics of CIT-8 in persister cells, we added 1 ml of
324 cell suspension to the wells of a 2-ml deep-well assay block (Cat no. 3960, Corning, NY, USA)
We also included ciprofloxacin (at 10 μg/ml) for S.
326 aureus MW2 and linezolid (100 μg/ml) for S. aureus VRS1 as antibiotic controls. Additionally,
327 we included bithionol (at 10 μg/ml) as a positive control, known for its ability to kill stationary
328 phase persister cells (6). We incubated the plates at 37°C, with shaking at 225 rpm. At specific
329 times (0, 15, 30, 60, and 120 min), we collected 10 μl samples, diluted them serially, and then
330 plated them on tryptic soy agar (TSA) (BD Difco, NJ, USA) plates. We incubated the TSA plates
331 for 18 hours at 37°C for colony counting. We performed these experiments in duplicate. As a
332 comparison, we prepared the exponential cells of S. aureus MW2 and VRS1 in PBS and analyzed
333 their killing kinetics in the same manner as described for persister cells.

Which results are given for H-GLFKVIKKLLKVI-NH2 [CIT-8]?
Reduction in MIC against mprF transposon mutant compared with JE2 [1]: 2 fold; MIC ([1]; JE2, Supplemental Table 6): 4 µg/mL; MIC for pdx-transposon mutant versus parent strain JE2 ([1]; also with 100 μM supplemental external vitamin B6): same MIC; MIC ([1]; mprF transposon mutant (NTML)): 2 µg/mL; MIC ([2]; S. aureus AR0215 (VISA)): 4 µg/mL; MIC ([2]; S. aureus AR0216 (VISA)): 8 µg/mL; MIC ([2]; S. aureus AR0217 (VISA)): 4 µg/mL; MIC ([2]; S. aureus AR0219 (VISA)): 8 µg/mL; MIC ([2]; S. aureus AR0225 (VISA)): 4 µg/mL; MIC ([2]; S. aureus BF1 (clinical isolate)): 4 µg/mL; MIC ([2]; S. aureus BF2 (clinical isolate)): 8 µg/mL; MIC ([2]; S. aureus BF3 (clinical isolate)): 8 µg/mL; MIC ([2]; S. aureus BF4 (clinical isolate)): 4 µg/mL; MIC ([2]; S. aureus BF5 (clinical isolate)): 4 µg/mL; MIC ([2]; S. aureus BF6 (clinical isolate)): 4 µg/mL; MIC ([2]; S. aureus BF7 (clinical isolate)): 4 µg/mL; MIC ([2]; S. aureus BF8 (clinical isolate)): 4 µg/mL; MIC ([2]; S. aureus BF9 (clinical isolate)): 4 µg/mL; MIC ([2]; S. aureus BF10 (clinical isolate)): 4 µg/mL; MIC ([2]; S. aureus BF11 (clinical isolate)): 4 µg/mL; MIC ([2]; S. aureus JE2 (MRSA)): 4 µg/mL; MIC ([2]; S. aureus VRS1 (VRSA)): 4 µg/mL; MIC against various VRSA, MRSA, VISA, and S. aureus clinical isolates ([2]; range over the isolates of Table 3): 4 to 8 µg/mL; Bacterial load from skin specimens, prophylactic model ([3]; 1% ointment 10 minutes after infection, animal 1): 11428571; Bacterial load from skin specimens, prophylactic model ([3]; 1% ointment 10 minutes after infection, animal 2): 16000000; Bacterial load from skin specimens, prophylactic model ([3]; 1% ointment 10 minutes after infection, animal 3): 1555556; Bacterial load from skin specimens, prophylactic model ([3]; 1% ointment 10 minutes after infection, animal 4): 3636364; Bacterial load from skin specimens, prophylactic model ([3]; 1% ointment 10 minutes after infection, animal 5): 6000000; Bacterial load from skin specimens, prophylactic model ([3]; 1% ointment 10 minutes after infection, animal 6): 3111111; Bacterial load from skin specimens, prophylactic model ([3]; 1% ointment 10 minutes after infection, animal 7): 2250000; Bacterial load from skin specimens, prophylactic model ([3]; 1% ointment 10 minutes after infection, animal 8): 2200000; Bacterial load from skin specimens, prophylactic model ([3]; 1% ointment 10 minutes after infection, animal 9): 4210526; Bacterial load from skin specimens, prophylactic model ([3]; 1% ointment 10 minutes after infection, animal 10): 6153846; Bacterial load from skin specimens, prophylactic model ([3]; 1% ointment 10 minutes after infection, animal 11): 4000000; Bacterial load from skin specimens, prophylactic model ([3]; 1% ointment 10 minutes after infection, animal 12): 6060606; Reduction of S. aureus MW2 burden vs vehicle, prophylactic model ([3]; 1% w/w ointment): 1.7 log; Reduction of S. aureus MW2 burden, repeat of prophylactic model ([3]; 1% w/w): 1.4 log; Bacterial load from skin specimens, prophylactic model ([3]; 2% ointment 10 minutes after infection, animal 1): 1000000; Bacterial load from skin specimens, prophylactic model ([3]; 2% ointment 10 minutes after infection, animal 2): 1142857; Bacterial load from skin specimens, prophylactic model ([3]; 2% ointment 10 minutes after infection, animal 3): 2400000; Bacterial load from skin specimens, prophylactic model ([3]; 2% ointment 10 minutes after infection, animal 4): 444444; Bacterial load from skin specimens, prophylactic model ([3]; 2% ointment 10 minutes after infection, animal 5): 1684211; Bacterial load from skin specimens, prophylactic model ([3]; 2% ointment 10 minutes after infection, animal 6): 4000000; Bacterial load from skin specimens, prophylactic model ([3]; 2% ointment 10 minutes after infection, animal 7): 666667; Bacterial load from skin specimens, prophylactic model ([3]; 2% ointment 10 minutes after infection, animal 8): 923077; Bacterial load from skin specimens, prophylactic model ([3]; 2% ointment 10 minutes after infection, animal 9): 909091; Bacterial load from skin specimens, prophylactic model ([3]; 2% ointment 10 minutes after infection, animal 10): 4923077; Bacterial load from skin specimens, prophylactic model ([3]; 2% ointment 10 minutes after infection, animal 11): 3666667; Bacterial load from skin specimens, prophylactic model ([3]; 2% ointment 10 minutes after infection, animal 12): 1200000; Reduction of bacterial burden, mouse model of MRSA skin infection ([3]; 2% w/w in petroleum jelly (abstract)): 2.3 log10; Reduction of S. aureus MW2 burden vs vehicle, prophylactic model ([3]; 2% w/w ointment): 2.3 log; Reduction of S. aureus MW2 burden, repeat of prophylactic model ([3]; 2% w/w): 2.1 log; Time to complete eradication of MRSA persister cells [4]: ≤ 30 min

From PMC12165799, “Antimicrobial peptide developed with machine learning sequence optimization targets drug resistant Staphylococcus aureus in mice” (The Journal of Clinical Investigation, 2025)
